Measurements reported in the NIST ThermoML archive (doi:10.1016/j.jct.2011.01.017).

Details: Liquid, DSC

CCCCCCCCCCCCCCCCCC(=O)OCC [ethyl octadecanoate]
Details	vapor or sublimation pressure [kPa]
490.97 K	1.33
505.55 K	2.67
512.98 K	4
520.56 K	5.33
524.45 K	6.67
525.78 K	8
533.97 K	9.33

CCCCCCCCCCCC(=O)OCC [ethyl dodecanoate]
Details	vapor or sublimation pressure [kPa]
420.05 K	1.33
432.13 K	2.67
443.41 K	4
451.05 K	5.33
456.47 K	6.67
462.44 K	8
464.35 K	9.33

CCCCCCCC/C=C\CCCCCCCC(=O)OCC [ethyl (Z)-9-octadeceneoate]
Details	vapor or sublimation pressure [kPa]
486.64 K	1.33
500.98 K	2.67
508.03 K	4
514.61 K	5.33
523.69 K	6.67
528.56 K	8
536.83 K	9.33

CCCCC/C=C\C/C=C\CCCCCCCC(=O)OCC [ethyl linoleate]
Details	vapor or sublimation pressure [kPa]
486.64 K	1.33
501.94 K	2.67
510.65 K	4
515.7 K	5.33
520.91 K	6.67
527.47 K	8
537.39 K	9.33

CCCCCCCCCCCCCCCC(=O)OCC [ethyl hexadecanoate]
Details	vapor or sublimation pressure [kPa]
464.49 K	1.33
481.9 K	2.67
495.23 K	4
502.27 K	5.33
508.1 K	6.67
512.23 K	8
515.13 K	9.33

CCCCCCCCCCCCCC(=O)OCC [ethyl tetradecanoate]
Details	vapor or sublimation pressure [kPa]
446.06 K	1.33
460.03 K	2.67
470.26 K	4
476.75 K	5.33
481.32 K	6.67
487.01 K	8
492.47 K	9.33
